Data from patent publication US8637045B2, “Therapy for lysosomal enzyme deficiencies” (University of Massachusetts, priority 2004, dated 2014).

What was measured:
β-glucosidase = biological target: T1, β-glucosidase (Mus musculus, UniProt P17439); assay: Gaucher mouse model produced with conduritol beta-epoxide; format: in vivo, mice
T1 construct: from tissue; host or cells: tissues of C57/Bl mice dosed in vivo with CBE
T1 sequence (P17439 20-515): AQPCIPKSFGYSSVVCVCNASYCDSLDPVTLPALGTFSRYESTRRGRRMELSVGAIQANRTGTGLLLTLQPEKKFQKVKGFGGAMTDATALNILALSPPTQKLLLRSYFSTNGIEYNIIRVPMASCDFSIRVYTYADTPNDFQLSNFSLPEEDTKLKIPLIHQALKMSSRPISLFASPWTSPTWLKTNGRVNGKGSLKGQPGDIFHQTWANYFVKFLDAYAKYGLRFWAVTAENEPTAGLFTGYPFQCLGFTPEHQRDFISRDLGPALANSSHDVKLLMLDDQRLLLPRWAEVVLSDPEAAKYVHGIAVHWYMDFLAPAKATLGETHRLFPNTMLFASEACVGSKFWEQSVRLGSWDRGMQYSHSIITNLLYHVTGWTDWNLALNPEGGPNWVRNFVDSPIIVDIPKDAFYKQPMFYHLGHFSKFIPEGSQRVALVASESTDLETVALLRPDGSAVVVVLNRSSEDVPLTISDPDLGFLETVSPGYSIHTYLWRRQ
Description: Two mouse models of Gaucher disease were used. The first Gaucher mouse was produced by injecting C57/Bl mice with 100 mg/kg of conduritol beta-epoxide, (CBE, 7-oxabicyclo[4.1.0]heptane-2,3,4,5-tetrol), intraperitoneally daily for 3 weeks. Three weeks of treatment of 3 month old C57/Bl mice with CBE produced an approximately 50% and 500% increase in the amount of glucosylceramide in systemic tissues and brain, respectively. […] No weight or behavioral differences occurred in 3 month old treated mice. […] Expressed as percentages of total body weight there was no difference for brain, liver, and kidney, but the spleen weight was 60% of control. […] There was a 50% and 300% increase in glucocerebroside in liver tissue and brain, respectively.

S. aureus = S. aureus killing by J774 murine macrophages loaded with YGP particles; format: cell-based
Description: One ml of murine macrophages, J774 (5×10^5/ml) was combined with YGP, YGP:alginate—tet or tetracycline of various concentration as summarized in Table 6, above.
The J774 cells were cultured overnight in medium (DMEM containing 10% fetal calf serum without antibiotics or glutamine). […] The microbial killing assay was set up in 96 well plates. The cultures were diluted in medium and incubated overnight to allow for metabolism and release of tet from phagocytosed YGP:alginate—tet particles. Bacterial challenge was added as indicated in Table 7 and the cultures were incubated 2 hours at 37 degrees Celsius in a CO2 incubator to permit S. aureus phagocytosis and killing by the J774 murine macrophages. After this incubation, 200 μl LB Broth (Luria-Bertani Broth: 1.0% tryptone, 0.5% yeast extract, 1.0% NaCl) was added to each culture to lyze the macrophages. Cultures were incubated at 37 degrees Celsius in an incubator to permit outgrowth of surviving S. aureus. Growth was monitored by change in pH as indicated by phenol red. The effects of YGP, YGP:alginate—tet or tetracycline were compared.

[1] = 3 month old C57/Bl mice, 100 mg/kg intraperitoneally daily for 3 weeks
[2] = 1 day old infant C57/Bl mice, 100 mg/kg IP daily for 3 weeks

increase in the amount of glucosylceramide in brain (β-glucosidase; [1]) | increase in the amount of glucosylceramide in systemic tissues (β-glucosidase; [1]) | increase in glucocerebroside in brain (β-glucosidase; [2]) | increase in glucocerebroside in liver tissue (β-glucosidase; [2]) | β-glucosidase activity (β-glucosidase; C57/Bl mice, 100 mg/kg intraperitoneally daily for 3 weeks) | Compound | spleen weight (as percentage of total body weight) (β-glucosidase; [2]) | S. aureus Killed (S. aureus; with J774, 1.25 μg/ml) | Fold Increased Killing (S. aureus; with J774, 2.5 μg/ml) | S. aureus Killed (S. aureus; with J774, 2.5 μg/ml) | S. aureus Killed (S. aureus; with J774, 5 μg/ml) | S. aureus Killed (S. aureus; with J774, 10 μg/ml) | Fold Increased Killing (S. aureus; without J774, 1.25 μg/ml) | S. aureus Killed (S. aureus; without J774, 1.25 μg/ml) | S. aureus Killed (S. aureus; without J774, 2.5 μg/ml) | S. aureus Killed (S. aureus; without J774, 5 μg/ml) | S. aureus Killed (S. aureus; without J774, 10 μg/ml)
~500% | approximately 50% | 300% | 50% | drastic reduction | OC1C(O)C(O)C2OC2C1O (stereo not shown) [CBE, 7-oxabicyclo[4.1.0]heptane-2,3,4,5-tetrol] | 60 % of control |  |  |  |  |  |  |  |  |  | 
 |  |  |  |  | CN(C)[C@@H]1C(O)=C(C(N)=O)C(=O)[C@@]2(O)C(O)=C3C(=O)c4c(O)cccc4[C@@](C)(O)[C@H]3C[C@@H]12 [tet, tetracycline] |  | 1 × 10^6 | 3.3 | 1 × 10^7 | >1 × 10^8 | >1 × 10^8 | 1 | 1 × 10^6 | 3.3 × 10^6 | >1 × 10^8 | >1 × 10^8
